Columns and labels:
[1] = tested on: K. pneumoniae expressing the class A carbapenemase KPC-2 and the class B carbapenemase VIM-4; assay: Broth microdilution MIC assay with meropenem, K. pneumoniae KPC-2 and VIM-4; type: cell-based; conditions: Fixed Mero (meropenem) 4 μg/mL; K. p. A-1797 KPC-2 VIM-4
Procedure, shortened: (§1)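 Potentiation format: the β-lactam was held at 4 μg/ml while the test compound was serially diluted, and growth was scored visually after overnight (16-20 h) incubation at 37° C.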

[2] = tested on: K. pneumoniae producing the Class D carbapenemase OXA-48; assay: Broth microdilution MIC assay with meropenem, K. pneumoniae OXA-48; type: cell-based; conditions: Fixed Mero (meropenem) 4 μg/mL; K. p. 11978 OXA-48
Procedure, shortened: as §1

[3] = tested on: E. coli expressing the Class A Extended Spectrum Beta-Lactamase (ESBL) CTX-M-15; assay: Broth microdilution MIC assay with ceftazidime, E. coli CTX-M-15; type: cell-based; conditions: Fixed CAZ (ceftazidime) 4 μg/mL; E. coli ESBL4 CTX-M-15
Procedure, shortened: as §1

[4] = tested on: P. aeruginosa expressing the Class B carbapenemase VIM-2; assay: Broth microdilution MIC assay with meropenem, P. aeruginosa VIM-2; type: cell-based; conditions: Fixed Mero (meropenem) 4 μg/mL; P. aerug. 2775 VIM-2
Procedure, shortened: as §1

OXA-48 = OXA-48 (UniProt Q6XEC0); assay: β-lactamase enzyme inhibition assay, Class D oxacillinase; type: biochemical; conditions: read-out: OXA-48
[5] = tested on: K. pneumoniae expressing the Class A carbapenemase KPC-2; assay: Broth microdilution MIC assay with meropenem, K. pneumoniae KPC-2; type: cell-based; conditions: Fixed Mero (meropenem) 4 μg/mL; K. p. 156319 KPC-3
Procedure, shortened: as §1

KPC-2 = molecular target: T1, KPC-2 (Klebsiella pneumoniae, UniProt Q9F663); assay: β-lactamase enzyme inhibition assay, KPC-2 (imipenem substrate); type: biochemical; conditions: Class A; imipenem substrate, 300 nm; read-out: KPC-2
T1 construct: made in house; host or cells: E. coli BL21(DE3)
Procedure, shortened: (§2)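 Read-out is the rate of β-lactam ring hydrolysis monitored by absorbance: 300 nm for imipenem with KPC-2 and 260 nm for cefotaxime with SHV-5. Recombinant native enzymes were first incubated with compound at 37 °C for 15 min. The IC50 is the inhibitor concentration that halves the initial hydrolysis rate.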

[6] = tested on: E. cloacae expressing the Class C P99; assay: Broth microdilution MIC assay with ceftazidime, E. cloacae P99; type: cell-based; conditions: Fixed CAZ (ceftazidime) 4 μg/mL; E. cl. 144200 p99 AmpC
Procedure, shortened: as §1

SHV-5 = molecular target: T2, SHV-5 (Klebsiella pneumoniae, UniProt P0A3M1); assay: β-lactamase enzyme inhibition assay, SHV-5 (cefotaxime substrate); type: biochemical
T2 construct: made in house; host or cells: E. coli BL21(DE3)
Procedure, shortened: as §2

VIM-2 = molecular target: T3, VIM-2 (Escherichia coli, UniProt Q5U7L7); assay: β-lactamase enzyme inhibition assay, VIM-2 (nitrocefin substrate); type: biochemical; conditions: Class B; nitrocefin substrate, 486 nm; read-out: VIM-2
T3 construct: made in house; host or cells: E. coli BL21(DE3)
Procedure, shortened: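 IC50 reflects the inhibitor concentration cutting the initial nitrocefin hydrolysis rate by half, compared with control wells lacking inhibitor. Substrate was used at 100 μM final after a 15 min, 37 °C enzyme–inhibitor preincubation.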

AmpC = molecular target: T4, AmpC (Enterobacter cloacae, UniProt P05364); assay: β-lactamase enzyme inhibition assay, p99 AmpC (nitrocefin substrate); type: biochemical
T4 construct: made in house; host or cells: E. coli BL21(DE3)
Procedure, shortened: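 Read-out is the rate of β-lactam ring hydrolysis monitored by absorbance. Recombinant native enzymes were first incubated with compound at 37 °C for 15 min. The IC50 is the inhibitor concentration that halves the initial hydrolysis rate.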

T4 sequence (P05364 21-381): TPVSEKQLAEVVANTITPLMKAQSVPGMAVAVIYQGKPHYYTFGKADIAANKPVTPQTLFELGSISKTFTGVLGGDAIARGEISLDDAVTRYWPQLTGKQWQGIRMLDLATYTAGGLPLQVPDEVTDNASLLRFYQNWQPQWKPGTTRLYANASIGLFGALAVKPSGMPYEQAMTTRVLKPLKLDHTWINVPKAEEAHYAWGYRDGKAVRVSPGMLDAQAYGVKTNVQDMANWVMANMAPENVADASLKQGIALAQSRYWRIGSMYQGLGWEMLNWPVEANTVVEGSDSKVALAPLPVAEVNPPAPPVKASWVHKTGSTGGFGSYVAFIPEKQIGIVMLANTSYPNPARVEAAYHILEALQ
T2 sequence (P0A3M1 22-286): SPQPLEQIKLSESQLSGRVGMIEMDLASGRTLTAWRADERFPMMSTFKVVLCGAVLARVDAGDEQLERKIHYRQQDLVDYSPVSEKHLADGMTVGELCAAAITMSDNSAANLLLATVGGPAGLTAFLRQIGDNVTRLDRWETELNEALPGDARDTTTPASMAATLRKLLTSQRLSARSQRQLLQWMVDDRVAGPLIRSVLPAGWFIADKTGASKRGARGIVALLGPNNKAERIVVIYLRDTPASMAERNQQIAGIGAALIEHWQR
T1 sequence (Q9F663 25-293, looked up): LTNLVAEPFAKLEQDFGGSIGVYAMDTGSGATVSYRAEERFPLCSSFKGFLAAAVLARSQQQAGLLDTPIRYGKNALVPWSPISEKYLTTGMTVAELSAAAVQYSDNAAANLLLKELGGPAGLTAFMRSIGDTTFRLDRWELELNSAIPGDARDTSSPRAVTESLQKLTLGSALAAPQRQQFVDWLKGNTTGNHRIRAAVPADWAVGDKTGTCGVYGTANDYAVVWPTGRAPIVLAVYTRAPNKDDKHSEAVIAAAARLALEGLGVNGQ

| Structure (SMILES) | MIC (μg/mL) of Exemplary Compounds in presence of fixed β-lactams: K. p. A-1797 KPC-2 VIM-4 [1] | MIC (μg/mL) of Exemplary Compounds in presence of fixed β-lactams: K. p. 11978 OXA-48 [2] | MIC (μg/mL) of Exemplary Compounds in presence of fixed β-lactams: E. coli ESBL4 CTX-M-15 [3] | MIC (μg/mL) of Exemplary Compounds in presence of fixed β-lactams: P. aerug. 2775 VIM-2 [4] | IC50 (OXA-48) | MIC (μg/mL) of Exemplary Compounds in presence of fixed β-lactams: K. p. 156319 KPC-3 [5] | IC50 (KPC-2) | MIC (μg/mL) of Exemplary Compounds in presence of fixed β-lactams: E. cl. 144200 p99 AmpC [6] | IC50 (SHV-5) | IC50 (VIM-2) | IC50 (AmpC) |
| --- | --- | --- | --- | --- | --- | --- | --- | --- | --- | --- | --- |
| CN(C)CCn1nnnc1CC(=O)N[C@H]1Cc2cccc(C(=O)O)c2OB1O [Example 49, (R)-3-(2-(1-(2-(dimethylamino)ethyl)-1H-tetrazol-5-yl)acetamido)-2-hydroxy-3,4-dihydro-2H-benzo[e][1,2]oxaborinine-8-carboxylic acid] | B (B represents an MIC between 1 and 16 μg/mL inclusive) | B (B represents an MIC between 1 and 16 μg/mL inclusive) | C (C represents an MIC of <1 μg/mL) | B (B represents an MIC between 1 and 16 μg/mL inclusive) | 100 to 1000 nM | C (C represents an MIC of <1 μg/mL) | < 100 nM | C (C represents an MIC of <1 μg/mL) | < 100 nM | 100 to 1000 nM | < 100 nM |
| NCCCn1nnnc1CC(=O)N[C@H]1Cc2cccc(C(=O)O)c2OB1O [Example 50, (R)-3-(2-(1-(3-aminopropyl)-1H-tetrazol-5-yl)acetamido)-2-hydroxy-3,4-dihydro-2H-benzo[e][1,2]oxaborinine-8-carboxylic acid] | C (C represents an MIC of <1 μg/mL) | B (B represents an MIC between 1 and 16 μg/mL inclusive) | C (C represents an MIC of <1 μg/mL) | C (C represents an MIC of <1 μg/mL) | 1000 to 10000 nM | C (C represents an MIC of <1 μg/mL) | < 100 nM | C (C represents an MIC of <1 μg/mL) | < 100 nM | < 100 nM | < 100 nM |
| NCCCn1nnc(CC(=O)N[C@H]2Cc3cccc(C(=O)O)c3OB2O)n1 [Example 51] | B (B represents an MIC between 1 and 16 μg/mL inclusive) | B (B represents an MIC between 1 and 16 μg/mL inclusive) | C (C represents an MIC of <1 μg/mL) | C (C represents an MIC of <1 μg/mL) | 1000 to 10000 nM | C (C represents an MIC of <1 μg/mL) | < 100 nM | C (C represents an MIC of <1 μg/mL) | < 100 nM | < 100 nM | < 100 nM |
| CC(C)NCCn1nnnc1CC(=O)N[C@H]1Cc2cccc(C(=O)O)c2OB1O [Example 52, (R)-2-hydroxy-3-(2-(1-(2-(isopropylamino)ethyl)-1H-tetrazol-5-yl)acetamido)-3,4-dihydro-2H-benzo[e][1,2]oxaborinine-8-carboxylic acid] | B (B represents an MIC between 1 and 16 μg/mL inclusive) | B (B represents an MIC between 1 and 16 μg/mL inclusive) | C (C represents an MIC of <1 μg/mL) | C (C represents an MIC of <1 μg/mL) | 1000 to 10000 nM | C (C represents an MIC of <1 μg/mL) | < 100 nM | C (C represents an MIC of <1 μg/mL) | < 100 nM | < 100 nM | < 100 nM |
| N=C(N)NCCCn1nnnc1CC(=O)N[C@H]1Cc2cccc(C(=O)O)c2OB1O [Example 53, (R)-3-(2-(1-(3-guanidinopropyl)-1H-tetrazol-5-yl)acetamido)-2-hydroxy-3,4-dihydro-2H-benzo[e][1,2]oxaborinine-8-carboxylic acid] | C (C represents an MIC of <1 μg/mL) | B (B represents an MIC between 1 and 16 μg/mL inclusive) | C (C represents an MIC of <1 μg/mL) | C (C represents an MIC of <1 μg/mL) | 1000 to 10000 nM | C (C represents an MIC of <1 μg/mL) | < 100 nM | C (C represents an MIC of <1 μg/mL) | < 100 nM | < 100 nM | < 100 nM |
| CCn1nnnc1CC(=O)N[C@H]1Cc2cccc(C(=O)O)c2OB1O [Example 54, (R)-3-(2-(1-ethyl-1H-tetrazol-5-yl)acetamido)-2-hydroxy-3,4-dihydro-2H-benzo[e][1,2]oxaborinine-8-carboxylic acid] | B (B represents an MIC between 1 and 16 μg/mL inclusive) | B (B represents an MIC between 1 and 16 μg/mL inclusive) | C (C represents an MIC of <1 μg/mL) | B (B represents an MIC between 1 and 16 μg/mL inclusive) | 1000 to 10000 nM | B (B represents an MIC between 1 and 16 μg/mL inclusive) | < 100 nM | C (C represents an MIC of <1 μg/mL) | < 100 nM | 100 to 1000 nM | < 100 nM |
| NCc1cc(-c2cn(CC(=O)N[C@H]3Cc4cccc(C(=O)O)c4OB3O)nn2)cs1 [Example 55, (R)-3-(2-(4-(5-(aminomethyl)thiophen-3-yl)-1H-1,2,3-triazol-1-yl)acetamido)-2-hydroxy-3,4-dihydro-2H-benzo[e][1,2]oxaborinine-8-carboxylic acid] | B (B represents an MIC between 1 and 16 μg/mL inclusive) | B (B represents an MIC between 1 and 16 μg/mL inclusive) | C (C represents an MIC of <1 μg/mL) | B (B represents an MIC between 1 and 16 μg/mL inclusive) | 100 to 1000 nM | C (C represents an MIC of <1 μg/mL) | < 100 nM | C (C represents an MIC of <1 μg/mL) | < 100 nM | 100 to 1000 nM | < 100 nM |
| O=C(Cn1cc([N+](=O)[O-])cn1)N[C@H]1Cc2cccc(C(=O)O)c2OB1O [Example 56, (R)-2-hydroxy-3-(2-(4-nitro-1H-pyrazol-1-yl)acetamido)-3,4-dihydro-2H-benzo[e][1,2]oxaborinine-8-carboxylic acid] | B (B represents an MIC between 1 and 16 μg/mL inclusive) | B (B represents an MIC between 1 and 16 μg/mL inclusive) | C (C represents an MIC of <1 μg/mL) | B (B represents an MIC between 1 and 16 μg/mL inclusive) | 100 to 1000 nM | B (B represents an MIC between 1 and 16 μg/mL inclusive) | < 100 nM | C (C represents an MIC of <1 μg/mL) | < 100 nM | 100 to 1000 nM | < 100 nM |

Source: patent US11046716B2, “Beta-lactamase inhibitors” (priority 2015, dated 2021)
